# Laboratory results: US20260285863A1, “COMPOUNDS CAPABLE OF MODULATING GPR65” (Pathios Therapeutics Limited, priority 2023, published 2026)
# pIC50: −log10 of the molar value.
# Target: T1, human recombinant GPR65 (Homo sapiens, UniProt Q8IYL9)
# T1 construct: host or cells: 1321N1 human astrocytoma cells (1321N1-hrGPR65)
# Assay: Human GPR65 cAMP HTRF antagonist assay
# Type: cell-based
# Conditions: 1321N1-hrGPR65 cells, assay pH 7.2, cAMP HTRF; read-out: hGPR65 IC50
# Excerpt: The “Human GPR65 cyclic adenosine monophosphate (cAMP) Homogeneous Time Resolved Fluorescence (HTRF) antagonist assay”, or simply “cAMP assay”, as described in the accompanying examples, can be used to measure the potency of GPR65 modulators, which is expressed as the concentration of compound required to reduce the increase in cAMP concentration upon GPR65 activation by 50% (i.e. an IC50).
# Human GPR65 Cyclic Adenosine Monophosphate (cAMP) Homogeneous Time Resolved Fluorescence (HTRF) Antagonist Assay Procedure
# IC50data was obtained by the following procedure:
# 1321N1 human astrocytoma cells stably expressing human recombinant GPR65 (1321N1-hrGPR65 cells, EuroscreenFast) were cultured according to the vendor's instructions.
# Compounds were tested for their ability to antagonise GPR65, through measuring the concentration of cytoplasmic cAMP following treatment of the cells at a pH of 7.2 to activate GPR65 signalling and addition of the compound to be tested. The extent to which the expected rise in cAMP concentration upon GPR65 activation was suppressed by the added compound is indicative of its potency. The assay was carried out according to EuroscreenFast assay Methodology as follows.
# On the day of the assay, test compounds were added to 384-well, low volume, white microtiter plates by acoustic dispensing. KRH buffer (5 mM KCl, 1.25 mM MgSO4, 124 mM NaCl, 25 mM HEPES, 13.3 mM Glucose, 1.25 mM KH2PO4 and 1.45 mM CaCl2) was adjusted to pH 6.5, pH 7.6 and pH 8.4 by adding NaOH. 1321N1-hGPR65 cells were rapidly thawed and diluted in KRH, pH 7.6 prior to centrifugation at 300×g for 5 min and resuspension in assay buffer (KRH, pH 7.6, supplemented with 1 mM 3-isobutyl-1-methylxanthine (IBMX) and 200 μM ethylenediaminetetraacetic acid (EDTA)). Cells were added to assay plates at a density of 2,000 cells per well in a volume of […]. Assay plates were briefly centrifuged at 100×g and then incubated at room temperature for 30 min. Cells were stimulated by the addition of 5 μL KRH, pH 6.5, to achieve an assay pH of 7.2, while control wells received […] KRH, pH 8.4 to achieve an assay pH of 7.9. Assay plates were briefly centrifuged at 100×g and then incubated at room temperature for 30 min.
# Accumulation of cAMP was detected by cAMP HTRF kit (Cisbio). d2-labeled cAMP and cryptate-labeled anti-cAMP antibody in Lysis and Detection Buffer (Cisbio) were added to assay plates, and the plates were incubated at room temperature for 1 h. HTRF measurements were performed using a Pherastar FSX instrument. Acceptor and donor emission signals were measured at 665 nm and 620 nm, respectively, and HTRF ratios were calculated as signal665 nm/signal620 nm×104. Data were normalised to high and low control values and fitted with 4-parameter logistic regression to determine hGPR65 IC50 values for the test compounds, which are shown in Table 1.
# T1 sequence (Q8IYL9 whole entry): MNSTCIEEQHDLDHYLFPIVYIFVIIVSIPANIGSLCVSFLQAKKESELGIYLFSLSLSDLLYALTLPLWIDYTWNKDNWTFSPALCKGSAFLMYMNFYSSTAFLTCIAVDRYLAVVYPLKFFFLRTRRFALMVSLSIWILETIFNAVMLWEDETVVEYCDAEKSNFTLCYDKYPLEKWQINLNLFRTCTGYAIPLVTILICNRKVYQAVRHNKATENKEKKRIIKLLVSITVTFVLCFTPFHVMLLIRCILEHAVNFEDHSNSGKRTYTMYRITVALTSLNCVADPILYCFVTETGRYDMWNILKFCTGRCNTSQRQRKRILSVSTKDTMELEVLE
row,SMILES,pIC50
1,"O=C(Nc1cc(Cl)c(-c2ccc(OC(C(F)F)C(F)F)nc2)cc1F)N1[C@H]2CC[C@@H]1c1c[nH]c(=O)cc1C2 [Compound 13, (6S,9R)-N-(5-chloro-2-fluoro-4-(6-((1,1,3,3-tetrafluoropropan-2-yl)oxy)pyridin-3-yl)phenyl)-3-oxo-3,5,6,7,8,9-hexahydro-2H-6,9-epiminocyclohepta[c]pyridine-10-carboxamide]",> 6.30
2,"O=C(Nc1cc(Cl)c(-c2ccc(OCC3CC3(F)F)nc2)cc1F)N1[C@H]2CC[C@@H]1c1ccnc(F)c1C2 (stereo partly drawn) [Compound 14, (5R,8S)-N-(5-chloro-4-(6-((2,2-difluorocyclopropyl)methoxy)pyridin-3-yl)-2-fluorophenyl)-1-fluoro-6,7,8,9-tetrahydro-5H-5,8-epiminocyclohepta[c]pyridine-10-carboxamide]",> 6.30
3,"COCCOCCO[C@H]1C[C@@H](Oc2ccc(-c3cc(F)c(NC(=O)N4[C@H]5CC[C@@H]4c4c[nH]c(=O)cc4C5)cc3Cl)cn2)C1 [Compound 15, (6S,9R)-N-(5-chloro-2-fluoro-4-(6-((1s,3S)-3-(2-(2-methoxyethoxy)ethoxy)cyclobutoxy)pyridin-3-yl)phenyl)-3-oxo-3,5,6,7,8,9-hexahydro-2H-6,9-epiminocyclohepta[c]pyridine-10-carboxamide]",> 6.30
4,"O=C(Nc1cc(Cl)c(-c2ccc(OCC3CCOC3)nc2)cc1F)N1[C@H]2CC[C@@H]1c1c[nH]c(=O)cc1C2 (stereo partly drawn) [Compound 16, (6S,9R)-N-(5-chloro-2-fluoro-4-(6-((tetrahydrofuran-3-yl)methoxy)pyridin-3-yl)phenyl)-3-oxo-3,5,6,7,8,9-hexahydro-2H-6,9-epiminocyclohepta[c]pyridine-10-carboxamide]",> 6.30
5,"Cc1cc(NC(=O)N2[C@H]3CC[C@@H]2c2c[nH]c(=O)cc2C3)c(F)cc1-c1ccc2nsnc2c1 [Compound 17, (6S,9R)-N-(4-(benzo[c][1,2,5]thiadiazol-5-yl)-2-fluoro-5-methylphenyl)-3-oxo-3,5,6,7,8,9-hexahydro-2H-6,9-epiminocyclohepta[c]pyridine-10-carboxamide]",> 6.30
6,"Cc1cc(NC(=O)N2[C@H]3CC[C@@H]2c2c[nH]c(=O)cc2C3)c(F)cc1-c1ccc(OCC(F)(F)F)nc1 [Compound 18, (6S,9R)-N-(2-fluoro-5-methyl-4-(6-(2,2,2-trifluoroethoxy)pyridin-3-yl)phenyl)-3-oxo-3,5,6,7,8,9-hexahydro-2H-6,9-epiminocyclohepta[c]pyridine-10-carboxamide]",> 6.30
7,"Cc1nc2cc(-c3cc(F)c(NC(=O)N4[C@H]5CC[C@@H]4c4c[nH]c(=O)cc4C5)cc3Cl)ccc2n1C [Compound 19, (6S,9R)-N-(5-chloro-4-(1,2-dimethyl-1H-benzo[d]imidazol-5-yl)-2-fluorophenyl)-3-oxo-3,5,6,7,8,9-hexahydro-2H-6,9-epiminocyclohepta[c]pyridine-10-carboxamide]",5.30 to 6.30
8,"O=C(Nc1cc(Cl)c(-c2ccc(OCC3CCC3)nc2)cc1F)N1[C@H]2CC[C@@H]1c1n[nH]c(=O)cc1C2 [Compound 20, (6S,9R)-N-(5-chloro-4-(6-(cyclobutylmethoxy)pyridin-3-yl)-2-fluorophenyl)-3-oxo-3,5,6,7,8,9-hexahydro-2H-6,9-epiminocyclohepta[c]pyridazine-10-carboxamide]",> 6.30
9,"O=C(Nc1ccc(-c2ccc(OCC(F)(F)F)nc2)cc1F)N1[C@H]2CC[C@@H]1c1n[nH]c(=O)cc1C2 [Compound 21, (6S,9R)-N-(2-fluoro-4-(6-(2,2,2-trifluoroethoxy)pyridin-3-yl)phenyl)-3-oxo-3,5,6,7,8,9-hexahydro-2H-6,9-epiminocyclohepta[c]pyridazine-10-carboxamide]",> 6.30
10,"COCCOCCO[C@H]1C[C@H](Oc2ccc(-c3cc(F)c(NC(=O)N4[C@H]5CC[C@@H]4c4c[nH]c(=O)cc4C5)cc3Cl)cn2)C1 [Compound 22, (6S,9R)-N-(5-chloro-2-fluoro-4-(6-((1r,3R)-3-(2-(2-methoxyethoxy)ethoxy)cyclobutoxy)pyridin-3-yl)phenyl)-3-oxo-3,5,6,7,8,9-hexahydro-2H-6,9-epiminocyclohepta[c]pyridine-10-carboxamide]",> 6.30
11,"COCCO[C@H]1C[C@@H](Oc2ccc(-c3cc(F)c(NC(=O)N4[C@H]5CC[C@@H]4c4c[nH]c(=O)cc4C5)cc3Cl)cn2)C1 [Compound 23, (6S,9R)-N-(5-chloro-2-fluoro-4-(6-((1s,3S)-3-(2-methoxyethoxy)cyclobutoxy)pyridin-3-yl)phenyl)-3-oxo-3,5,6,7,8,9-hexahydro-2H-6,9-epiminocyclohepta[c]pyridine-10-carboxamide]",> 6.30
12,"Cc1cc(-c2cc(F)c(NC(=O)N3[C@H]4CC[C@@H]3c3c[nH]c(=O)cc3C4)cc2Cl)cc2nsnc12 [Compound 24, (6S,9R)-N-(5-chloro-2-fluoro-4-(7-methylbenzo[c][1,2,5]thiadiazol-5-yl)phenyl)-3-oxo-3,5,6,7,8,9-hexahydro-2H-6,9-epiminocyclohepta[c]pyridine-10-carboxamide]",> 6.30
13,"CC(C)(C)OC(=O)N1CCC(Oc2ccc(-c3cc(F)c(NC(=O)N4[C@H]5CC[C@@H]4c4c[nH]c(=O)cc4C5)cc3Cl)cn2)C1 (stereo partly drawn) [Compound 25, tert-Butyl 3-((5-(2-chloro-5-fluoro-4-((6S,9R)-3-oxo-3,5,6,7,8,9-hexahydro-2H-6,9-epiminocyclohepta[c]pyridine-10-carboxamido)phenyl)pyridin-2-yl)oxy)pyrrolidine-1-carboxylate]",> 6.30
14,"Cn1ccc2cc(-c3cc(F)c(NC(=O)N4[C@H]5CC[C@@H]4c4c[nH]c(=O)cc4C5)cc3Cl)ccc21 [Compound 26, (6S,9R)-N-(5-chloro-2-fluoro-4-(1-methyl-1H-indol-5-yl)phenyl)-3-oxo-3,5,6,7,8,9-hexahydro-2H-6,9-epiminocyclohepta[c]pyridine-10-carboxamide]",> 6.30
15,"O=C(Nc1cc(Cl)c(-c2ccc(OC3CCN(CC(F)(F)F)C3)nc2)cc1F)N1[C@H]2CC[C@@H]1c1c[nH]c(=O)cc1C2 (stereo partly drawn) [Compound 27, (6S,9R)-N-(5-chloro-2-fluoro-4-(6-((1-(2,2,2-trifluoroethyl)pyrrolidin-3-yl)oxy)pyridin-3-yl)phenyl)-3-oxo-3,5,6,7,8,9-hexahydro-2H-6,9-epiminocyclohepta[c]pyridine-10-carboxamide]",> 6.30
16,"O=C(Nc1cc(Cl)c(-c2ccc(OCC3CCC3)nc2)cc1F)N1[C@H]2CC[C@@H]1c1c[nH]c(=O)cc1C2 [Compound 28, (6S,9R)-N-(5-chloro-4-(6-(cyclobutylmethoxy)pyridin-3-yl)-2-fluorophenyl)-3-oxo-3,5,6,7,8,9-hexahydro-2H-6,9-epiminocyclohepta[c]pyridine-10-carboxamide]",> 6.30
17,"CC(C)(C)OC(=O)N1CC(COc2ccc(-c3cc(F)c(NC(=O)N4[C@H]5CC[C@@H]4c4c[nH]c(=O)cc4C5)cc3Cl)cn2)C1 [Compound 29, tert-Butyl 3-(((5-(2-chloro-5-fluoro-4-((6S,9R)-3-oxo-3,5,6,7,8,9-hexahydro-2H-6,9-epiminocyclohepta[c]pyridine-10-carboxamido)phenyl)pyridin-2-yl)oxy)methyl)azetidine-1-carboxylate]",> 6.30
18,"Cn1cc(-c2cc(F)c(NC(=O)N3[C@H]4CC[C@@H]3c3c[nH]c(=O)cc3C4)cc2Cl)ccc1=O [Compound 30, (6S,9R)-N-(5-chloro-2-fluoro-4-(1-methyl-6-oxo-1,6-dihydropyridin-3-yl)phenyl)-3-oxo-3,5,6,7,8,9-hexahydro-2H-6,9-epiminocyclohepta[c]pyridine-10-carboxamide]",5.30 to 6.30
19,"CN(C(=O)C(F)(F)F)c1ccc(-c2cc(F)c(NC(=O)N3[C@H]4CC[C@@H]3c3c[nH]c(=O)cc3C4)cc2Cl)cn1 [Compound 31, (6S,9R)-N-(5-chloro-2-fluoro-4-(6-(2,2,2-trifluoro-N-methylacetamido)pyridin-3-yl)phenyl)-3-oxo-3,5,6,7,8,9-hexahydro-2H-6,9-epiminocyclohepta[c]pyridine-10-carboxamide]",5.30 to 6.30
